Values after ≈ are worked out from the molar mass of the structure shown. Active and inactive are the calls of the source. No cut-off for these calls is given here.
Assays:
Candida albicans [1] = experiment: Antifungal activity against Candida albicans 90028 assessed as fungal growth inhibition at 16 ug/ml measured after 18 hrs by microdilution method relative to control; type: functional; settings: read-out: GI
Candida albicans [2] = experiment: Antifungal activity against Candida albicans 90028 assessed as fungal growth inhibition at 8 ug/ml measured after 18 hrs by microdilution method relative to control; type: functional; settings: read-out: GI
Candida albicans [3] = experiment: Antifungal activity against Candida albicans 90028 assessed as fungal growth inhibition at 4 ug/ml measured after 18 hrs by microdilution method relative to control; type: functional; settings: read-out: GI
Candida albicans [4] = experiment: Antifungal activity against Candida albicans 90028 assessed as fungal growth inhibition at 2 ug/ml measured after 18 hrs by microdilution method relative to control; type: functional; settings: read-out: GI
Candida albicans [5] = experiment: Antifungal activity against Candida albicans 90028 assessed as fungal growth inhibition at 1 ug/ml measured after 18 hrs by microdilution method relative to control; type: functional; settings: read-out: GI
Candida albicans [6] = experiment: Antifungal activity against Candida albicans 90028 assessed as fungal growth inhibition at 0.5 ug/ml measured after 18 hrs by microdilution method relative to control; type: functional; settings: read-out: GI
Candida albicans [7] = experiment: Antifungal activity against Candida albicans 90028 assessed as fungal growth inhibition at 0.25 ug/ml measured after 18 hrs by microdilution method relative to control; type: functional; settings: read-out: GI
Candida albicans [8] = experiment: Antifungal activity against Candida albicans 90028 assessed as fungal growth inhibition at 0.125 ug/ml measured after 18 hrs by microdilution method relative to control; type: functional; settings: read-out: GI
Candida albicans [9] = experiment: Antifungal activity against Candida albicans 90028 assessed as fungal growth inhibition at 0.0625 ug/ml measured after 18 hrs by microdilution method relative to control; type: functional; settings: read-out: GI
Candida albicans [10] = experiment: Antifungal activity against Candida albicans 90028 assessed as fungal growth inhibition at 0.0313 ug/ml measured after 18 hrs by microdilution method relative to control; type: functional; settings: read-out: GI
Candida albicans [11] = experiment: Antifungal activity against Candida albicans 90028 assessed as fungal growth inhibition at 16 ug/ml measured after 48 hrs by microdilution method relative to control; type: functional; settings: read-out: GI
Candida albicans [12] = experiment: Antifungal activity against Candida albicans 90028 assessed as fungal growth inhibition at 8 ug/ml measured after 48 hrs by microdilution method relative to control; type: functional; settings: read-out: GI
Candida albicans [13] = experiment: Antifungal activity against Candida albicans 90028 assessed as fungal growth inhibition at 4 ug/ml measured after 48 hrs by microdilution method relative to control; type: functional; settings: read-out: GI
Candida albicans [14] = experiment: Antifungal activity against Candida albicans 90028 assessed as fungal growth inhibition at 2 ug/ml measured after 48 hrs by microdilution method relative to control; type: functional; settings: read-out: GI
Candida albicans [15] = experiment: Antifungal activity against Candida albicans 90028 assessed as fungal growth inhibition at 1 ug/ml measured after 48 hrs by microdilution method relative to control; type: functional; settings: read-out: GI
Candida albicans [16] = experiment: Antifungal activity against Candida albicans 90028 assessed as fungal growth inhibition at 0.5 ug/ml measured after 48 hrs by microdilution method relative to control; type: functional; settings: read-out: GI
Candida albicans [17] = experiment: Antifungal activity against Candida albicans 90028 assessed as fungal growth inhibition at 0.25 ug/ml measured after 48 hrs by microdilution method relative to control; type: functional; settings: read-out: GI
Candida albicans [18] = experiment: Antifungal activity against Candida albicans 90028 assessed as fungal growth inhibition at 0.125 ug/ml measured after 48 hrs by microdilution method relative to control; type: functional; settings: read-out: GI
Candida albicans [19] = experiment: Antifungal activity against Candida albicans 90028 assessed as fungal growth inhibition at 0.0625 ug/ml measured after 48 hrs by microdilution method relative to control; type: functional; settings: read-out: GI
Candida albicans [20] = experiment: Antifungal activity against Candida albicans 90028 assessed as fungal growth inhibition at 0.0313 ug/ml measured after 48 hrs by microdilution method relative to control; type: functional; settings: read-out: GI
Candida albicans [21] = experiment: Fungicidal activity against Candida albicans 90028 preincubated for 48 hrs followed by plating on SD agar and measured after 48 hrs; type: functional; settings: time 96 hrs
Candida albicans [22] = experiment: Antifungal activity against Candida albicans 90028 infected in Galleria mellonella larvae assessed as increase in larvae survival at MFC measured 96 hrs post-infection relative to control; type: functional
[23] = Cytotoxicity against African green monkey Vero cells by XTT assay; type: cell-based; settings: chlorocebus sabaeus
[24] = Cytotoxicity against human MRC5 cells by CellTiter 96 Aqueous One Solution Reagent based assay; type: cell-based
[25] = Toxicity in Galleria mellonella larvae assessed as survival at 16 ug/ml relative to control; settings: at 16 µg/mL
[26] = Drug uptake in Galleria mellonella larvae assessed as increase in fluorescence between cell wall and muscle layer measured after 2 hrs by fluorescence assay; type: ADME
[27] = Drug uptake in Galleria mellonella larvae assessed as increase in fluorescence near the proventriculus measured after 2 hrs by fluorescence assay; type: ADME
Candida albicans [28] = experiment: Antifungal activity against Candida albicans 90028 infected in Galleria mellonella larvae at 16 ug/ml by H and E staining based histological analysis; type: functional, organism-based; settings: dose 16.0 µg/ml
Candida albicans [29] = experiment: Induction of plasma membrane permeabilization in Candida albicans infected in human MRC5 cells at 16 ug/ml measured after 18 hrs by propidium iodide staining based confocal laser scanning microscopy; type: functional, organism-based; settings: dose 16.0 µg/ml
Candida albicans [30] = experiment: Induction of plasma membrane permeabilization in Candida albicans infected in human TR146 cells at 16 ug/ml measured after 18 hrs by propidium iodide staining based confocal laser scanning microscopy; type: functional, organism-based; settings: dose 16.0 µg/ml
Candida albicans [31] = experiment: Induction of cell demise in Candida albicans infected in human TR146 cells at 16 ug/ml measured after 18 hrs by AO/propidium iodide staining based confocal laser scanning microscopy; type: functional, organism-based; settings: dose 16.0 µg/ml
Candida albicans [32] = experiment: Induction of cell demise in Candida albicans infected in human MRC5 cells at 16 ug/ml measured after 18 hrs by AO/propidium iodide staining based confocal laser scanning microscopy; type: functional, organism-based; settings: dose 16.0 µg/ml
Candida albicans [33] = experiment: Antifungal activity against Candida albicans 90028 assessed as fungal growth inhibition measured after 48 hrs by microdilution method; type: functional
[34] = Drug uptake in Galleria mellonella larvae assessed as increase in fluorescence in longitudinal larva slides measured after 2 hrs by fluorescence assay; type: ADME, tissue-based
Vero [35] = experiment: Cytotoxicity against African green monkey Vero cells at 0.25 to 512 ug/ml by XTT assay relative to control; type: cell-based; settings: chlorocebus sabaeus, at 0.25 to 512 µg/mL, dose 0.25-512 µg/ml
Vero [36] = experiment: Cytotoxicity against African green monkey Vero cells at 0.25 to 16 ug/ml by XTT assay relative to control; type: cell-based; settings: chlorocebus sabaeus, at 0.25 to 16 µg/mL, dose 0.25-16 µg/ml
Candida albicans [37] = experiment: Induction of plasma membrane disruption in Candida albicans assessed as accidental type cell death at 8 ug/ml measured after 18 hrs by Annexin V-FITC/propidium iodide staining based flow cytometry (reference value: 1.74 +/- 1.37%); settings: dose 8.0 µg/ml
Candida albicans [38] = experiment: Anti-adhesive activity against Candida albicans assessed as reduction in […] adhesion to human TR146 cells at 8 ug/ml incubated for 2 hrs prior to cell infection and measured after 2 hrs by colony counting method relative to control; type: functional; parameters: scale not given: the % may be the effect or the level left; settings: dose 8 µg/ml; time 4 hrs
[39] = Induction of adhesive activity against Candida albicans assessed as increase in […] adhesion to human TR146 cells at 4 ug/ml incubated for 2 hrs prior to cell infection and measured after 2 hrs by colony counting method relative to control; type: cell-based; settings: tr146, 4 h, dose 4 µg/ml
Candida albicans [40] = experiment: Antibiofilm activity against Candida albicans 90028 assessed as cell killing at 256 ug/ml by XTT assay relative to control; type: functional; settings: dose 256 µg/ml
Candida albicans [41] = experiment: Antibiofilm activity against Candida albicans 90028 assessed as increasing in cell killing by XTT assay; type: functional

Row | SMILES | inhibition of growth at 16 µg/mL (Candida albicans [1]) | inhibition of growth at 8 µg/mL (Candida albicans [2]) | inhibition of growth at 4 µg/mL (Candida albicans [3]) | inhibition of growth at 2 µg/mL (Candida albicans [4]) | inhibition of growth at 1 µg/mL (Candida albicans [5]) | inhibition of growth at 0.5 µg/mL (Candida albicans [6]) | inhibition of growth at 0.25 µg/mL (Candida albicans [7]) | inhibition of growth at 0.125 µg/mL (Candida albicans [8]) | inhibition of growth at 0.0625 µg/mL (Candida albicans [9]) | inhibition of growth at 0.0313 µg/mL (Candida albicans [10]) | inhibition of growth at 16 µg/mL (Candida albicans [11]) | inhibition of growth at 8 µg/mL (Candida albicans [12]) | inhibition of growth at 4 µg/mL (Candida albicans [13]) | inhibition of growth at 2 µg/mL (Candida albicans [14]) | inhibition of growth at 1 µg/mL (Candida albicans [15]) | inhibition of growth at 0.5 µg/mL (Candida albicans [16]) | inhibition of growth at 0.25 µg/mL (Candida albicans [17]) | inhibition of growth at 0.125 µg/mL (Candida albicans [18]) | inhibition of growth at 0.0625 µg/mL (Candida albicans [19]) | inhibition of growth at 0.0313 µg/mL (Candida albicans [20]) | other results
1 | O=[N+]([O-])c1cc(S(=O)(=O)C(Cl)(Cl)Br)ccc1N/N=C\c1ccc(C2=C3C=CC=[N+]3[B-](F)(F)n3cccc32)cc1 | 100% | 100% | 100% | 100% | 100% | 100% | 100% | 99.7% | 99.8% | 99.7% | 100% | 100% | 100% | 100% | 100% | 100% | 100% | 99.7% | 99.8% | 99.7% | MFC (Candida albicans [21]): ≥ 16 µg/mL; Activity (Candida albicans [22]): 61.47%; CC50 [23]: ≥ 8 µg/mL; CC50 [24]: ≥ 256 µg/mL; survival [25]: 93%; Drug uptake [26]: Active; Drug uptake [27]: Active; Activity (Candida albicans [28]): Active; Activity (Candida albicans [29]): Active; Activity (Candida albicans [30]): Active; Activity (Candida albicans [31]): Active; Activity (Candida albicans [32]): Active
2 | O=[N+]([O-])c1cc(S(=O)(=O)C(F)(F)I)ccc1N/N=C\c1ccc(C2=C3C=CC=[N+]3[B-](F)(F)n3cccc32)cc1 | 100% | 100% | 100% | 100% | 100% | 100% | 100% | 100% | 100% | 100% | 100% | 100% | 100% | 100% | 100% | 100% | 97% | 95.5% | 94.3% | 75.8% | MIC (Candida albicans [33]): inactive; MFC (Candida albicans [21]): ≥ 16 µg/mL; CC50 [23]: ≥ 8 µg/mL; CC50 [24]: ≥ 16 µg/mL; survival [25]: 100%; Drug uptake [34]: Not Active; Activity (Candida albicans [28]): inactive; Activity (Candida albicans [29]): Active; Activity (Candida albicans [30]): Active; Activity (Candida albicans [31]): Active; Activity (Candida albicans [32]): Active
3 | O=[N+]([O-])c1cc(S(=O)(=O)C(F)(F)Cl)ccc1N/N=C\c1ccc(C2=C3C=CC=[N+]3[B-](F)(F)n3cccc32)cc1 | 100% | 100% | 100% | 99.9% | 100% | 99.8% | 100% | 99.8% | 100% | 100% | 100% | 100% | 100% | 100% | 100% | 100% | 99.9% | 100% | 99.8% | 99.8% | MIC (Candida albicans [33]): inactive; MFC (Candida albicans [21]): ≥ 16 µg/mL; Activity (Vero [35]): 100%; CC50 [24]: ≥ 16 µg/mL; survival [25]: 93%; Drug uptake [34]: Not Active; Drug uptake [27]: Active; Activity (Candida albicans [28]): inactive; Activity (Candida albicans [29]): Active; Activity (Candida albicans [30]): Active; Activity (Candida albicans [31]): Active; Activity (Candida albicans [32]): Active
4 | NNc1ccc(S(=O)(=O)C(F)(F)I)cc1[N+](=O)[O-] | 100% | 100% | 100% | 100% | 100% | 99.7% | 100% | 73.7% | 100% | 88.2% | 100% | 100% | 74.9% | 72.8% | 72.9% | 70.1% | 69.5% | 22.9% | 15.5% | 22% | MIC90 (Candida albicans [33]): 8 µg/mL (≈ 20.4 µM); MFC (Candida albicans [21]): 8 µg/mL (≈ 20.4 µM); Activity (Vero [36]): 12.54%; CC50 [23]: ≥ 32 µg/mL; CC50 [24]: ≥ 16 µg/mL; survival [25]: 100%; Activity (Candida albicans [28]): inactive; Activity (Candida albicans [37]): 74.8%; Activity (Candida albicans [38]): 100%; fold change (FC) [39]: 13.78; Activity (Candida albicans [40]): 40%; CC50 (Candida albicans [41]): ≤ 64 µg/mL
